One may read the IC50 as the concentration that inhibits the measured activity by half.

Chain of EGFR (P00533 25-1210): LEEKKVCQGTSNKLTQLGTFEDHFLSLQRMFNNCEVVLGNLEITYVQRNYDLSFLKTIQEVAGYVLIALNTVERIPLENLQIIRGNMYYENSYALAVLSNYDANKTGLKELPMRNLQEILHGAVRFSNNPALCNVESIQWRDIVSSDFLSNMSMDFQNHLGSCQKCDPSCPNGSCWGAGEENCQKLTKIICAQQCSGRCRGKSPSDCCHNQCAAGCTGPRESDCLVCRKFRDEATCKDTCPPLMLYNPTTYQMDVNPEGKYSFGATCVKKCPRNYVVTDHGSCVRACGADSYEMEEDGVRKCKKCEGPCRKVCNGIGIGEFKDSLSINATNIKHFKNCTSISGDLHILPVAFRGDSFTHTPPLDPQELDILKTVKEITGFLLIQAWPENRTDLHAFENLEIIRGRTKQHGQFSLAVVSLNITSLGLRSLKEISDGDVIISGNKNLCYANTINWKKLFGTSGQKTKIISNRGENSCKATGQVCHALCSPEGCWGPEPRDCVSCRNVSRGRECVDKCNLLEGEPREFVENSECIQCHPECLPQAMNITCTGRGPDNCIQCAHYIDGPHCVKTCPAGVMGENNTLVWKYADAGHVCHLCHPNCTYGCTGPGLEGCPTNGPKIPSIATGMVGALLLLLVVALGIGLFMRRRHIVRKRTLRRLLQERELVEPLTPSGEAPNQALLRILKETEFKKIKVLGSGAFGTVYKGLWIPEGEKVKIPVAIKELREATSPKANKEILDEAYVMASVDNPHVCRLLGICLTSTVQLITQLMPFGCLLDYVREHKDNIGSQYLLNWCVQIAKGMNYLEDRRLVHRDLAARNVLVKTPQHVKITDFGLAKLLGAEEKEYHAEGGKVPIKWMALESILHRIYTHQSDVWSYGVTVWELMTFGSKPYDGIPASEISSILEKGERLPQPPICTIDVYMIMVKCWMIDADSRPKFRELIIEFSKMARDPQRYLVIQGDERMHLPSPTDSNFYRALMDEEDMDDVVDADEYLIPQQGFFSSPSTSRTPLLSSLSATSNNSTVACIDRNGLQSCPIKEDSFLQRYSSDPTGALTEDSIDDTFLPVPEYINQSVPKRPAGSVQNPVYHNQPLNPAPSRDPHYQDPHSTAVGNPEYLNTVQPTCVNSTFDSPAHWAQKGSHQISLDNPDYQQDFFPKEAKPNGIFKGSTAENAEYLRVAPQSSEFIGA

The assay addresses EGFR (Homo sapiens, UniProt P00533). Kind of assay: EGFR assay (cellular ELISA, NIH 3T3/C7 cells). The format is cell-based. Details: expressed in transfected cells; host or cells: NIH 3T3/C7. The following applies: read-out: cell EGF IC50. The procedure, abridged: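 NIH 3T3/C7 cells expressing human EGFR, serum-starved (0.5% serum) ~40 h, treated with compound (1:200 of 10 mg/ml DMSO stock, 1% DMSO) then stimulated 5 min with 25 nM EGF. Lysate EGFR captured by antibody and phosphotyrosine detected by anti-Ptyr ELISA (OD 410 nm); % inhibition after negative-control subtraction.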
A general note: ELISA stands for enzyme-linked immunosorbent assay.
`COc1ccc(/C=C2/C(=O)Nc3ccc(Br)cc32)cc1-c1ccccc1` [Example 13, 5-Bromo-3-(6-methoxybiphenyl-3-ylmethylene)-1,3-dihydroindol-2-one]: the 50% inhibitory concentration (IC50) worked out at 30.8 µM.
Under `O=C1Nc2ccccc2/C1=C\c1ccc2c(c1)CCO2` [Example 66, 3-(2,3-Dihydrobenzofuran-5-ylmethylene)-1,3-dihydroindol-2-one] stands above 100 µM; under `COc1c(C(C)C)cc(/C=C2/C(=O)Nc3cc(NC(=O)OC(C)(C)C)ccc32)cc1C(C)C` [Example 52, [3-(3,5-Diisopropyl-4-methoxybenzylidene)-2-oxo-2,3-dihydro-1H-indol-6-yl]-carbamic acid tert-butyl ester], above 100 µM.

(Values after patent publication US6855730B2, “3-methylidenyl-2-indolinone modulators of protein kinase” (Sugen, Inc., priority 1998, dated 2005).)
